Patent US8192962B2, “Processes for detecting toxic substances” (Daikin Industries, Ltd., priority 2001, dated 2012)

Test system: Genes belonging to other category
Experiment: DNA chip mRNA expression in yeast, genes belonging to other category (Table 9)
Type: cell-based, Saccharomyces cerevisiae S288C
Summary of the method: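 First, S288C yeast grown in YPD at 25° C. are dosed in log phase with one toxicant (growth-inhibiting, not lethal) for 2 h. Next, total RNA is extracted and poly(A) mRNA isolated and reverse-transcribed with Cy3/Cy5-dUTP. Finally, whole-genome chip fluorescence is read relative to unexposed cells.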

**Q.** Which “The level of expressed mRNA in the presence of chemical substance/The level of expressed mRNA in the absence of chemical substance” value (yeast gene YAL055W) does the source give for N#Cc1c(Cl)c(Cl)c(Cl)c(C#N)c1Cl [(9), 2,4,5,6-tetrachloro-1,3-benzenedicarbonitrile] here?
**A.** The value was 1.0.

**Q.** And the “The level of expressed mRNA in the presence of chemical substance/The level of expressed mRNA in the absence of chemical substance” value (yeast gene YAR010C)?
**A.** The value was 1.2.

**Q.** And the “The level of expressed mRNA in the presence of chemical substance/The level of expressed mRNA in the absence of chemical substance” value (yeast gene YBL005W-A)?
**A.** Its value is 0.8.

**Q.** What about the “The level of expressed mRNA in the presence of chemical substance/The level of expressed mRNA in the absence of chemical substance” value (yeast gene YBL041W) of the same compound?
**A.** The value was 2.8.

**Q.** What about the “The level of expressed mRNA in the presence of chemical substance/The level of expressed mRNA in the absence of chemical substance” value (yeast gene YBL043W) of the same compound?
**A.** Its value is 0.5.

**Q.** And the “The level of expressed mRNA in the presence of chemical substance/The level of expressed mRNA in the absence of chemical substance” value (yeast gene YBL078C)?
**A.** Its value is 12.3.

**Q.** And the “The level of expressed mRNA in the presence of chemical substance/The level of expressed mRNA in the absence of chemical substance” value (yeast gene YBL102W)?
**A.** The value was 2.3.

**Q.** And the “The level of expressed mRNA in the presence of chemical substance/The level of expressed mRNA in the absence of chemical substance” value (yeast gene YBR046C)?
**A.** Its value is 4.6.

**Q.** What about the “The level of expressed mRNA in the presence of chemical substance/The level of expressed mRNA in the absence of chemical substance” value (yeast gene YBR139W) of the same compound?
**A.** The value was 2.3.

**Q.** What about the “The level of expressed mRNA in the presence of chemical substance/The level of expressed mRNA in the absence of chemical substance” value (yeast gene YBR177C) of the same compound?
**A.** The value was 2.1.

**Q.** And the “The level of expressed mRNA in the presence of chemical substance/The level of expressed mRNA in the absence of chemical substance” value (yeast gene YBR212W)?
**A.** The value was 2.7.

**Q.** And the “The level of expressed mRNA in the presence of chemical substance/The level of expressed mRNA in the absence of chemical substance” value (yeast gene YBR214W)?
**A.** Its value is 2.2.

**Q.** What about the “The level of expressed mRNA in the presence of chemical substance/The level of expressed mRNA in the absence of chemical substance” value (yeast gene YCL020W) of the same compound?
**A.** The value was 0.9.

**Q.** What about the “The level of expressed mRNA in the presence of chemical substance/The level of expressed mRNA in the absence of chemical substance” value (yeast gene YCL027W) of the same compound?
**A.** Its value is 0.7.

**Q.** And the “The level of expressed mRNA in the presence of chemical substance/The level of expressed mRNA in the absence of chemical substance” value (yeast gene YCL033C)?
**A.** The value was 2.3.

**Q.** What about the “The level of expressed mRNA in the presence of chemical substance/The level of expressed mRNA in the absence of chemical substance” value (yeast gene YCL067C) of the same compound?
**A.** The value was 1.4.

**Q.** What about the “The level of expressed mRNA in the presence of chemical substance/The level of expressed mRNA in the absence of chemical substance” value (yeast gene YCR004C) of the same compound?
**A.** Its value is 4.7.

**Q.** And the “The level of expressed mRNA in the presence of chemical substance/The level of expressed mRNA in the absence of chemical substance” value (yeast gene YCR062W)?
**A.** Its value is 0.7.

**Q.** What about the “The level of expressed mRNA in the presence of chemical substance/The level of expressed mRNA in the absence of chemical substance” value (yeast gene YCR071C) of the same compound?
**A.** The value was 0.6.

**Q.** And the “The level of expressed mRNA in the presence of chemical substance/The level of expressed mRNA in the absence of chemical substance” value (yeast gene YCR088W)?
**A.** The value was 0.8.

**Q.** What about the “The level of expressed mRNA in the presence of chemical substance/The level of expressed mRNA in the absence of chemical substance” value (yeast gene YDL007W) of the same compound?
**A.** The value was 3.8.

**Q.** What about the “The level of expressed mRNA in the presence of chemical substance/The level of expressed mRNA in the absence of chemical substance” value (yeast gene YDL008W) of the same compound?
**A.** The value was 2.3.

**Q.** What about the “The level of expressed mRNA in the presence of chemical substance/The level of expressed mRNA in the absence of chemical substance” value (yeast gene YDL018C) of the same compound?
**A.** The value was 1.0.

**Q.** What about the “The level of expressed mRNA in the presence of chemical substance/The level of expressed mRNA in the absence of chemical substance” value (yeast gene YDL065C) of the same compound?
**A.** The value was 2.4.

**Q.** What about the “The level of expressed mRNA in the presence of chemical substance/The level of expressed mRNA in the absence of chemical substance” value (yeast gene YDL197C) of the same compound?
**A.** Its value is 2.6.

**Q.** What about the “The level of expressed mRNA in the presence of chemical substance/The level of expressed mRNA in the absence of chemical substance” value (yeast gene YDL229W) of the same compound?
**A.** Its value is 1.4.

**Q.** What about the “The level of expressed mRNA in the presence of chemical substance/The level of expressed mRNA in the absence of chemical substance” value (yeast gene YDL230W) of the same compound?
**A.** Its value is 2.6.

**Q.** What about the “The level of expressed mRNA in the presence of chemical substance/The level of expressed mRNA in the absence of chemical substance” value (yeast gene YDL238C) of the same compound?
**A.** Its value is 1.7.

**Q.** What about the “The level of expressed mRNA in the presence of chemical substance/The level of expressed mRNA in the absence of chemical substance” value (yeast gene YDR055W) of the same compound?
**A.** Its value is 0.8.

**Q.** And the “The level of expressed mRNA in the presence of chemical substance/The level of expressed mRNA in the absence of chemical substance” value (yeast gene YDR084C)?
**A.** The value was 0.6.

**Q.** And the “The level of expressed mRNA in the presence of chemical substance/The level of expressed mRNA in the absence of chemical substance” value (yeast gene YDR085C)?
**A.** Its value is 0.4.

**Q.** And the “The level of expressed mRNA in the presence of chemical substance/The level of expressed mRNA in the absence of chemical substance” value (yeast gene YDR099W)?
**A.** The value was 2.4.

**Q.** What about the “The level of expressed mRNA in the presence of chemical substance/The level of expressed mRNA in the absence of chemical substance” value (yeast gene YDR104C) of the same compound?
**A.** The value was 2.8.

**Q.** And the “The level of expressed mRNA in the presence of chemical substance/The level of expressed mRNA in the absence of chemical substance” value (yeast gene YDR115W)?
**A.** Its value is 1.1.

**Q.** And the “The level of expressed mRNA in the presence of chemical substance/The level of expressed mRNA in the absence of chemical substance” value (yeast gene YDR125C)?
**A.** Its value is 0.7.

**Q.** And the “The level of expressed mRNA in the presence of chemical substance/The level of expressed mRNA in the absence of chemical substance” value (yeast gene YDR188W)?
**A.** The value was 2.9.

**Q.** And the “The level of expressed mRNA in the presence of chemical substance/The level of expressed mRNA in the absence of chemical substance” value (yeast gene YDR257C)?
**A.** The value was 3.0.

**Q.** What about the “The level of expressed mRNA in the presence of chemical substance/The level of expressed mRNA in the absence of chemical substance” value (yeast gene YDR259C) of the same compound?
**A.** Its value is 1.0.

**Q.** And the “The level of expressed mRNA in the presence of chemical substance/The level of expressed mRNA in the absence of chemical substance” value (yeast gene YDR315C)?
**A.** Its value is 1.1.

**Q.** What about the “The level of expressed mRNA in the presence of chemical substance/The level of expressed mRNA in the absence of chemical substance” value (yeast gene YDR358W) of the same compound?
**A.** The value was 2.9.

**Q.** What about the “The level of expressed mRNA in the presence of chemical substance/The level of expressed mRNA in the absence of chemical substance” value (yeast gene YDR388W) of the same compound?
**A.** Its value is 1.4.

**Q.** What about the “The level of expressed mRNA in the presence of chemical substance/The level of expressed mRNA in the absence of chemical substance” value (yeast gene YDR427W) of the same compound?
**A.** The value was 2.3.

**Q.** And the “The level of expressed mRNA in the presence of chemical substance/The level of expressed mRNA in the absence of chemical substance” value (yeast gene YDR432W)?
**A.** The value was 0.7.

**Q.** And the “The level of expressed mRNA in the presence of chemical substance/The level of expressed mRNA in the absence of chemical substance” value (yeast gene YDR481C)?
**A.** Its value is 1.9.

**Q.** And the “The level of expressed mRNA in the presence of chemical substance/The level of expressed mRNA in the absence of chemical substance” value (yeast gene YDR506C)?
**A.** Its value is 1.9.

**Q.** What about the “The level of expressed mRNA in the presence of chemical substance/The level of expressed mRNA in the absence of chemical substance” value (yeast gene YDR510W) of the same compound?
**A.** Its value is 2.7.

**Q.** And the “The level of expressed mRNA in the presence of chemical substance/The level of expressed mRNA in the absence of chemical substance” value (yeast gene YDR515W)?
**A.** Its value is 5.8.

**Q.** And the “The level of expressed mRNA in the presence of chemical substance/The level of expressed mRNA in the absence of chemical substance” value (yeast gene YEL042W)?
**A.** Its value is 0.2.

**Q.** And the “The level of expressed mRNA in the presence of chemical substance/The level of expressed mRNA in the absence of chemical substance” value (yeast gene YEL052W)?
**A.** The value was 3.0.

**Q.** And the “The level of expressed mRNA in the presence of chemical substance/The level of expressed mRNA in the absence of chemical substance” value (yeast gene YEL066W)?
**A.** Its value is 1.3.
